Measured values published in ChEMBL document CHEMBL3351664, “Acylphloroglucinol derivatives from Hypericum andinum: antidepressant-like activity of andinin A” (J Nat Prod, 2014).

Legend:
[1] = system: Mus musculus; assay: Toxicity in po dosed CF1 mouse assessed as effect on locomotor activity at 30 mg/kg, po measured after 60 mins by open-field test; assay type: organism-based; parameters: dose 30 mg/kg, route oral; conditions: in vivo, 1 h
[2] = system: Mus musculus; assay: Antidepressant-like activity in po dosed mouse assessed as reduction in the immobility time by forced-swimming test; assay type: functional, organism-based

Compound: CC(C)=CCOc1cc(O)c(C(=O)C(C)C)c(O)c1CC1=C(O)C(C)(C)C(O)=C(C(=O)C(C)C)C1=O
- Activity [1]: Non-toxic
- Activity [2]: Dose-dependent effect
